{
  "source": "patent US12686673B2",
  "about": "(Blueprint Medicines Corporation, priority 2020, dated 2026)",
  "format_in_all_cases": "cell-based",
  "key": {"[1]": {"target": "EGFR (A767_dupASV) expressing Ba/F3 stable cell line (Homo sapiens, UniProt P00533, DUP767-769, cells depend on it)", "sequence (P00533 with tags, fused parts or gaps DUP767-769)": "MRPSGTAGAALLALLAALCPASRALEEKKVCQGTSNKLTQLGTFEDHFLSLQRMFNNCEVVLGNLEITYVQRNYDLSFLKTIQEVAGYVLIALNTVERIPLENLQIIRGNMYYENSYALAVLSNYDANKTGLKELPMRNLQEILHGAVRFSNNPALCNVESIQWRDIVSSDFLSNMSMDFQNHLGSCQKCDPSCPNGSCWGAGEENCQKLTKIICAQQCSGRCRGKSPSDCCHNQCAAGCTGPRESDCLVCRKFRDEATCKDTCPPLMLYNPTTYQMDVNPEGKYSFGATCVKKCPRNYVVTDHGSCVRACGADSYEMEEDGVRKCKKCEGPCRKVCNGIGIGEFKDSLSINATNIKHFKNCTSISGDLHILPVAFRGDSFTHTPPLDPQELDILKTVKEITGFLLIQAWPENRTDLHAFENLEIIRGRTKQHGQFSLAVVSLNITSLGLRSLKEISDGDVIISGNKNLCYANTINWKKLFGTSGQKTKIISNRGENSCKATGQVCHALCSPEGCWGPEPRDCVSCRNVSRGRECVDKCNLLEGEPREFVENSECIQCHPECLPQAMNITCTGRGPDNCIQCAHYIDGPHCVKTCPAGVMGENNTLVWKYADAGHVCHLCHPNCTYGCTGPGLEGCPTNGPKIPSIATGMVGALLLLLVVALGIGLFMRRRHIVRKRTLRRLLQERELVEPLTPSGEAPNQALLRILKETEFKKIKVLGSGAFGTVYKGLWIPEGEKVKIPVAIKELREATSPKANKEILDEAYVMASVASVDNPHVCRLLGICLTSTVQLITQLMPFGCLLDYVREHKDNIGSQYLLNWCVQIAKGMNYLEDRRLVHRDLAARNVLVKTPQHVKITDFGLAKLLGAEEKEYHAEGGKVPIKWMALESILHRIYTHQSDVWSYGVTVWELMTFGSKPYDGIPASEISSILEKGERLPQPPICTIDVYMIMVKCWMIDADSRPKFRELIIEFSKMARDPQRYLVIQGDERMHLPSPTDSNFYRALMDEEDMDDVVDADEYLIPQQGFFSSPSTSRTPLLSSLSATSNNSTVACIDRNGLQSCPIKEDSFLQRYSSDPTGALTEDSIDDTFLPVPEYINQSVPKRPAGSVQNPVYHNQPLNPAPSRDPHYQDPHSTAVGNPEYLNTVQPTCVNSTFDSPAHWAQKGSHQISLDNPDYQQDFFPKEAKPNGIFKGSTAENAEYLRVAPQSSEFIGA", "assay": "Cellular proliferation (Alamar Blue) assay, EGFR A767_dupASV Ba/F3", "details": "72 hr, read-out: A767 IC50", "method_in_brief": "(§1)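 Steps: plate 15,000 Ba/F3 cells/well in RPMI/10% FBS; rest 16-18 h, 37 °C; add compound at final 10-0.0005 μM (3-fold series) or DMSO; incubate 72 hr; add Alamar Blue; read after 3 h.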"}, "[2]": {"target": "EGFR(D770_N771insSVD) expressing Ba/F3 stable cell line (Homo sapiens, UniProt P00533, DUP768-770, cells depend on it)", "sequence (P00533 with tags, fused parts or gaps DUP768-770)": "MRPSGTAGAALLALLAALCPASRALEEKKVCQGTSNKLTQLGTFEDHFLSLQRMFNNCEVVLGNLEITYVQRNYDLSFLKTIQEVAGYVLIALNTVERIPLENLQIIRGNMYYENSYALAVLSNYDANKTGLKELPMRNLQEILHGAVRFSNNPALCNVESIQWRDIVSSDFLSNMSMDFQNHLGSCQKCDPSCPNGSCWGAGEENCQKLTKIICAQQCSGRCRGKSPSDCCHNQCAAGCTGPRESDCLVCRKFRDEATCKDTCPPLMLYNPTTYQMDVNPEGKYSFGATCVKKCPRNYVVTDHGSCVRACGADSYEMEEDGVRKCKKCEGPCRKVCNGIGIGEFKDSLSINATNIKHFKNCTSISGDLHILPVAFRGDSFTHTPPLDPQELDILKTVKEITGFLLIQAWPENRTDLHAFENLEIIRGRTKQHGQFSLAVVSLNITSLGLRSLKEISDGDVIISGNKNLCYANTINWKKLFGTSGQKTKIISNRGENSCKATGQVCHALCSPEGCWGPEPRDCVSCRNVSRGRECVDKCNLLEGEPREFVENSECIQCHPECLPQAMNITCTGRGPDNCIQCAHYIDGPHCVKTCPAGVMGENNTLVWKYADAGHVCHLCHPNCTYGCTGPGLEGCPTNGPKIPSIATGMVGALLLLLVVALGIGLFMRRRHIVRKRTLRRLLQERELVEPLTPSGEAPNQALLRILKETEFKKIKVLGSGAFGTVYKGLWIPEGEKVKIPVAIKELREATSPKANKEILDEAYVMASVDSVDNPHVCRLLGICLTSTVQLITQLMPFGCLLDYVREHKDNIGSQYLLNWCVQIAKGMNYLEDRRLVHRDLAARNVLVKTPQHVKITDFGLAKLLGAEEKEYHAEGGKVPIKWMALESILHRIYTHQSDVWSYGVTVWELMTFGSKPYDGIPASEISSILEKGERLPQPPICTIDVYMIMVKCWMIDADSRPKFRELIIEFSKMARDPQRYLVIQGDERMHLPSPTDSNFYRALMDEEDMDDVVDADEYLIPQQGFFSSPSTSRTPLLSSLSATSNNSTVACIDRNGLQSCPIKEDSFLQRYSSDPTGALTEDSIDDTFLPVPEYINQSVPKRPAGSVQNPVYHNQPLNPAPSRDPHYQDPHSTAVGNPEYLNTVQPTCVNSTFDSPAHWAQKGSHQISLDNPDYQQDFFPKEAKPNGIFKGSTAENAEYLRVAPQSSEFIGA", "assay": "Cellular proliferation (Alamar Blue) assay, EGFR D770_N771insSVD Ba/F3", "details": "72 hr, read-out: D770 IC50", "method_in_brief": "as §1"}, "[3]": {"target": "EGFR (H773insNPH) expressing Ba/F3 stable cell line (Homo sapiens, UniProt P00533, DUP771-773, cells depend on it)", "sequence (P00533 with tags, fused parts or gaps DUP771-773)": "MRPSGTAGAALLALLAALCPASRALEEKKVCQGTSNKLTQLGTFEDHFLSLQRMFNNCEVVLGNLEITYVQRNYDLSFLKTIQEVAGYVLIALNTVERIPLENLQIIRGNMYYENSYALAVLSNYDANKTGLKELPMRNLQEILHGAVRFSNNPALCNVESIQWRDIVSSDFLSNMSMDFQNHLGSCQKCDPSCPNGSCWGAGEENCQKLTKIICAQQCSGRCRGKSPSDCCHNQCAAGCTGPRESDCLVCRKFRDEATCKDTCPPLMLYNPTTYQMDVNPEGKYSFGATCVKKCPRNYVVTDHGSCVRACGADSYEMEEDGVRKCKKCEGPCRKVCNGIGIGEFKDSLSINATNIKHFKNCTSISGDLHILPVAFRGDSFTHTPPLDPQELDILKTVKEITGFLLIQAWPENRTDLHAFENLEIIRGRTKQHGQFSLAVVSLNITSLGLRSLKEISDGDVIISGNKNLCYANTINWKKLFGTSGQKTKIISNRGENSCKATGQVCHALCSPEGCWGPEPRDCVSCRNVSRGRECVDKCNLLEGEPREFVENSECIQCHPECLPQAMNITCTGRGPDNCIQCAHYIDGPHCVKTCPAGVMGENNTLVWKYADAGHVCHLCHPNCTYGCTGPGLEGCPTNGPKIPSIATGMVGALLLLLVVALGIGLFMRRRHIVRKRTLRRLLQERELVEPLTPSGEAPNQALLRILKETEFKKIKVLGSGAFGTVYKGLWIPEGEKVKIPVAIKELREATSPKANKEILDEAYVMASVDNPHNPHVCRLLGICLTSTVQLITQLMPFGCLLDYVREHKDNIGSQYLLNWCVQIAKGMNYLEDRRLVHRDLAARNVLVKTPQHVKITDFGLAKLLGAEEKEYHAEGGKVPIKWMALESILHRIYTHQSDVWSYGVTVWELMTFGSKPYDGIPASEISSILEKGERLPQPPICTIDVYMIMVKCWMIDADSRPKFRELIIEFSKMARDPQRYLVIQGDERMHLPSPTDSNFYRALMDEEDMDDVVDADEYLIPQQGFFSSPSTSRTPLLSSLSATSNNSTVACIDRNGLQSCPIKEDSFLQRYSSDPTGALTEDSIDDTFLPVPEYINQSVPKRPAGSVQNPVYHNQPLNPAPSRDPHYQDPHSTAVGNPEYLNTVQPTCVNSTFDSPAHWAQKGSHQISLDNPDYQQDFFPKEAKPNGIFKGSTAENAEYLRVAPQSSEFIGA", "assay": "Cellular proliferation (Alamar Blue) assay, EGFR H773insNPH Ba/F3", "details": "72 hr, read-out: NPH IC50", "method_in_brief": "as §1"}, "[4]": {"target": "HER2 (A775_G776insYVMA) expressing Ba/F3 stable cell line (Homo sapiens, UniProt P04626, DUP772-775, cells depend on it)", "sequence (P04626 with tags, fused parts or gaps DUP772-775)": "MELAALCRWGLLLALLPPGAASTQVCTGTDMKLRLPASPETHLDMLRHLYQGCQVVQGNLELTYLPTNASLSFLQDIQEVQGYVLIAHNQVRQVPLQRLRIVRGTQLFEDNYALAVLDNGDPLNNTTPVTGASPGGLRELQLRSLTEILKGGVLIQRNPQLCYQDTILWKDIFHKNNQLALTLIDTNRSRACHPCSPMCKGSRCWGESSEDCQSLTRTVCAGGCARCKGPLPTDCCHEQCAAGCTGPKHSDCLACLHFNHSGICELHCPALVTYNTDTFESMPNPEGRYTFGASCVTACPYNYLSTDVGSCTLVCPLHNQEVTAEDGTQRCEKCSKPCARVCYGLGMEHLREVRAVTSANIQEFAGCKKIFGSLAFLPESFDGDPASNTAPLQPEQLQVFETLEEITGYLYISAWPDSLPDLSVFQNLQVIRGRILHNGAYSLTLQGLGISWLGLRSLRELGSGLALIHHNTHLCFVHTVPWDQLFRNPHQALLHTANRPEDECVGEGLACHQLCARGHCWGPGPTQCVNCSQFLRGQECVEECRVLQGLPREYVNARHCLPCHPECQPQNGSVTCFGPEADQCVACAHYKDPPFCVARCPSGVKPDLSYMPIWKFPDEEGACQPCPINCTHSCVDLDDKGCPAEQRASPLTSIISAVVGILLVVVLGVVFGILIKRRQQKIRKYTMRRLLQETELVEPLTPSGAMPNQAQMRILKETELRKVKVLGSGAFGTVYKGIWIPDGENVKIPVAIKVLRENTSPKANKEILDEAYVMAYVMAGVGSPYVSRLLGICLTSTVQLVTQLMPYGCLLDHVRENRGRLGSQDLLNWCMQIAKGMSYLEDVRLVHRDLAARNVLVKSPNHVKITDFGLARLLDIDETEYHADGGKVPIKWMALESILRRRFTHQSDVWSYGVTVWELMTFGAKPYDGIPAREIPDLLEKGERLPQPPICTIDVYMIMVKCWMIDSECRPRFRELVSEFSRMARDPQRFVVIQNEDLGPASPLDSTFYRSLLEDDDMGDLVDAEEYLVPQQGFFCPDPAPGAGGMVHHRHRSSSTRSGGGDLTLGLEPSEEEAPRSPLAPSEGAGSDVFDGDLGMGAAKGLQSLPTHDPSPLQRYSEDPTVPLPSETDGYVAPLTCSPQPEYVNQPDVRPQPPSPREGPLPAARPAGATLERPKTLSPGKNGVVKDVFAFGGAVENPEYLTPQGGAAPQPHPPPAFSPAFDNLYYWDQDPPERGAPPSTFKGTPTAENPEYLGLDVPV", "assay": "Cellular proliferation (Alamar Blue) assay, HER2 A775_G776insYVMA Ba/F3", "details": "72 hr, read-out: YVMA IC50", "method_in_brief": "as §1"}, "[5]": {"test_system": "A431 cells", "assay": "Cellular proliferation (Alamar Blue) assay, A431"}, "[6]": {"details": "Homo sapiens, A-431; A431 cells, Alamar Blue, 72 hr; read-out: A431 IC50"}, "[7]": {"details": "Homo sapiens, A-431; A431 cells, 72 hr, Alamar Blue; read-out: A431 IC50"}},
  "note": "Where two headings read alike, the source gives them in different places.",
  "data": [
    {"smiles": "C=CC(=O)Nc1cccc(Oc2nc(Nc3cnn(C)c3)ncc2-c2ccc(C)nc2)c1", "note": "[Compound 186, N-(3-((2-((1-methyl-1H-pyrazol-4-yl)amino)-5-(6-methylpyridin-3-yl)pyrimidin-4-yl)oxy)phenyl)acrylamide]", "values": [
      {"measurement": "GI50", "setting": "[1]", "result": 90, "unit": "nM"},
      {"measurement": "GI50", "setting": "[2]", "result": 114, "unit": "nM"},
      {"measurement": "GI50", "setting": "[3]", "result": 106, "unit": "nM"},
      {"measurement": "GI50", "setting": "[4]", "result": 175, "unit": "nM"},
      {"measurement": "IC50", "setting": "[5]; [6]", "result": 170, "unit": "nM"}
    ]},
    {"smiles": "C=CC(=O)Nc1cccc(Oc2nc(Nc3cnn(C)c3)ncc2-c2ccc(C(F)F)nc2)c1", "note": "[Compound 187, N-(3-((5-(6-(difluoromethyl)pyridin-3-yl)-2-((1-methyl-1H-pyrazol-4-yl)amino)pyrimidin-4-yl)oxy)phenyl)acrylamide]", "values": [
      {"measurement": "GI50", "setting": "[1]", "result": 61, "unit": "nM"},
      {"measurement": "GI50", "setting": "[2]", "result": 40, "unit": "nM"},
      {"measurement": "GI50", "setting": "[3]", "result": 99, "unit": "nM"},
      {"measurement": "GI50", "setting": "[4]", "result": 226, "unit": "nM"},
      {"measurement": "IC50", "setting": "[5]; [6]", "result": 281, "unit": "nM"}
    ]},
    {"smiles": "C=CC(=O)Nc1cccc(Oc2nc(Nc3cnn(C)c3)ncc2-c2ccc(OC(F)F)nc2)c1", "note": "[Compound 188, N-(3-((5-(6-(difluoromethoxy)pyridin-3-yl)-2-((1-methyl-1H-pyrazol-4-yl)amino)pyrimidin-4-yl)oxy)phenyl)acrylamide]", "values": [
      {"measurement": "GI50", "setting": "[1]", "result": 118, "unit": "nM"},
      {"measurement": "GI50", "setting": "[2]", "result": 108, "unit": "nM"},
      {"measurement": "GI50", "setting": "[3]", "result": 300, "unit": "nM"},
      {"measurement": "GI50", "setting": "[4]", "result": 269, "unit": "nM"},
      {"measurement": "IC50", "setting": "[5]; [6]", "result": 216, "unit": "nM"}
    ]},
    {"smiles": "C=CC(=O)Nc1cncc(Nc2nc(Nc3cnn(C)c3)ncc2-c2ccc(C(F)(F)F)cc2)c1", "note": "[Compound 195, N-(5-((2-((1-methyl-1H-pyrazol-4-yl)amino)-5-(4-(trifluoromethyl)phenyl)pyrimidin-4-yl)amino)pyridin-3-yl)acrylamide]", "values": [
      {"measurement": "GI50", "setting": "[1]", "result": 135, "unit": "nM"},
      {"measurement": "GI50", "setting": "[2]", "result": 57, "unit": "nM"},
      {"measurement": "GI50", "setting": "[3]", "result": 180, "unit": "nM"},
      {"measurement": "GI50", "setting": "[4]", "result": 258, "unit": "nM"},
      {"measurement": "IC50", "setting": "[5]; [6]", "result": 524, "unit": "nM"}
    ]},
    {"smiles": "C=CC(=O)Nc1ccc(F)c(Nc2nc(Nc3cnn(CCN(C)C)c3)ncc2-c2ccc(Br)cc2)c1", "note": "[Compound 203, N-(3-((5-(4-bromophenyl)-2-((1-(2-(dimethylamino)ethyl)-1H-pyrazol-4-yl)amino)pyrimidin-4-yl)amino)-4-fluorophenyl)acrylamide]", "values": [
      {"measurement": "GI50", "setting": "[1]", "result": 100, "unit": "nM"},
      {"measurement": "GI50", "setting": "[2]", "result": 69, "unit": "nM"},
      {"measurement": "GI50", "setting": "[3]", "result": 107, "unit": "nM"},
      {"measurement": "GI50", "setting": "[4]", "result": 110, "unit": "nM"},
      {"measurement": "IC50", "setting": "[5]; [7]", "result": 51, "unit": "nM"}
    ]},
    {"smiles": "C=CC(=O)Nc1ccc(F)c(Nc2nc(Nc3cn(CCN(C)C)nc3Cl)ncc2-c2ccc(C(F)(F)F)cc2)c1", "note": "[Compound 221, N-(3-((2-((3-chloro-1-(2-(dimethylamino)ethyl)-1H-pyrazol-4-yl)amino)-5-(4-(trifluoromethyl)phenyl)pyrimidin-4-yl)amino)-4-fluorophenyl)acrylamide]", "values": [
      {"measurement": "GI50", "setting": "[1]", "result": 297, "unit": "nM"},
      {"measurement": "GI50", "setting": "[2]", "result": 123, "unit": "nM"},
      {"measurement": "GI50", "setting": "[3]", "result": 225, "unit": "nM"},
      {"measurement": "GI50", "setting": "[4]", "result": 298, "unit": "nM"},
      {"measurement": "IC50", "setting": "[5]; [7]", "result": 68, "unit": "nM"}
    ]},
    {"smiles": "C=CC(=O)Nc1ccc(F)c(Nc2nc(Nc3cnn(C)c3)ncc2-c2cncs2)c1", "note": "[Compound 230, N-(4-fluoro-3-((2-((1-methyl-1H-pyrazol-4-yl)amino)-5-(thiazol-5-yl)pyrimidin-4-yl)amino)phenyl)acrylamide]", "values": [
      {"measurement": "GI50", "setting": "[1]", "result": 63, "unit": "nM"},
      {"measurement": "GI50", "setting": "[2]", "result": 63, "unit": "nM"},
      {"measurement": "GI50", "setting": "[3]", "result": 41, "unit": "nM"},
      {"measurement": "GI50", "setting": "[4]", "result": 54, "unit": "nM"},
      {"measurement": "IC50", "setting": "[5]; [7]", "result": 109, "unit": "nM"}
    ]},
    {"smiles": "C=CC(=O)Nc1cccc(Oc2nc(Nc3cn(C)nc3Cl)ncc2-c2ccc(C(F)(F)F)cc2)c1", "note": "[Compound 233, N-[3-({2-[(3-chloro-1-methyl-1H-pyrazol-4-yl)amino]-5-[4-(trifluoromethyl)phenyl]pyrimidin-4-yl}oxy)phenyl] prop-2-enamide]", "values": [
      {"measurement": "GI50", "setting": "[1]", "result": 428, "unit": "nM"},
      {"measurement": "GI50", "setting": "[2]", "result": 187, "unit": "nM"},
      {"measurement": "GI50", "setting": "[3]", "result": 385, "unit": "nM"},
      {"measurement": "GI50", "setting": "[4]", "result": 537, "unit": "nM"},
      {"measurement": "IC50", "setting": "[5]; [7]", "result": 262, "unit": "nM"}
    ]},
    {"smiles": "[2H]C([2H])([2H])n1cc(Nc2ncc(-c3ccc(C(F)(F)F)cc3)c(Nc3cc(NC(=O)C=C)ccc3F)n2)cn1", "note": "[Compound 242, N-{4-fluoro-3-[(2-{[1-(^2H3)methyl-1H-pyrazol-4-yl]amino}-5-[4-(trifluoromethyl)phenyl]pyrimidin-4-yl)amino]phenyl}prop-2-enamide]", "values": [
      {"measurement": "GI50", "setting": "[1]", "result": 101, "unit": "nM"},
      {"measurement": "GI50", "setting": "[2]", "result": 98, "unit": "nM"},
      {"measurement": "GI50", "setting": "[3]", "result": 101, "unit": "nM"},
      {"measurement": "GI50", "setting": "[4]", "result": 133, "unit": "nM"},
      {"measurement": "IC50", "setting": "[5]; [7]", "result": 129, "unit": "nM"}
    ]},
    {"smiles": "C=CC(=O)Nc1ccc(F)c(Nc2nc(Nc3cnn(C)c3)ncc2-c2ccc(C(F)(F)F)cc2)c1", "note": "[Compound 243, N-(4-fluoro-3-((2-((1-(methyl-^13C-d3)-1H-pyrazol-4-yl)amino)-5-(4-(trifluoromethyl)phenyl)pyrimidin-4-yl)amino)phenyl)acrylamide]", "values": [
      {"measurement": "GI50", "setting": "[1]", "result": 135, "unit": "nM"},
      {"measurement": "GI50", "setting": "[2]", "result": 88, "unit": "nM"},
      {"measurement": "GI50", "setting": "[3]", "result": 121, "unit": "nM"},
      {"measurement": "GI50", "setting": "[4]", "result": 237, "unit": "nM"},
      {"measurement": "IC50", "setting": "[5]; A431 cells, 72 hr, Alamar Blue; read-out: A431 IC50", "result": 2600, "unit": "nM"}
    ]},
    {"smiles": "[2H]C([2H])=CC(=O)Nc1ccc(F)c(Nc2nc(Nc3cnn(C)c3)ncc2-c2ccc(C(F)(F)F)cc2)c1", "note": "[Compound 247, N-[4-fluoro-3-({2-[(1-methyl-1H-pyrazol-4-yl)amino]-5-[4-(trifluoromethyl)phenyl]pyrimidin-4-yl}amino)phenyl] (3,3-2H2) prop-2-enamide]", "values": [
      {"measurement": "GI50", "setting": "[1]", "result": 123, "unit": "nM"},
      {"measurement": "GI50", "setting": "[2]", "result": 86, "unit": "nM"},
      {"measurement": "GI50", "setting": "[3]", "result": 144, "unit": "nM"},
      {"measurement": "GI50", "setting": "[4]", "result": 270, "unit": "nM"},
      {"measurement": "IC50", "setting": "[5]; [7]", "result": 3000, "unit": "nM"}
    ]},
    {"smiles": "[2H]C([2H])=CC(=O)Nc1ccc(F)c(Nc2nc(Nc3cnn(C([2H])([2H])[2H])c3)ncc2-c2ccc(C(F)(F)F)cc2)c1", "note": "[Compound 248, N-(4-fluoro-3-((2-((1-(methyl-d3)-1H-pyrazol-4-yl)amino)-5-(4-(trifluoromethyl)phenyl)pyrimidin-4-yl)amino)phenyl)acrylamide-3,3-d2]", "values": [
      {"measurement": "GI50", "setting": "[1]", "result": 143, "unit": "nM"},
      {"measurement": "GI50", "setting": "[2]", "result": 109, "unit": "nM"},
      {"measurement": "GI50", "setting": "[3]", "result": 43, "unit": "nM"},
      {"measurement": "GI50", "setting": "[4]", "result": 250, "unit": "nM"},
      {"measurement": "IC50", "setting": "[5]; [7]", "result": 222, "unit": "nM"}
    ]}
  ]
}
